Consider one compound from patent US20110207689A1, “THE TREATMENT OF HEARING LOSS” (Auckland UniServices Limited, priority 2008, published 2011).

Structures are written as SMILES. “Also recorded” adds a separate entry of the source.

The subject of assay [1] is nitrotyrosine immunoreactivity in the organ of Corti. The experiment in a line: Nitrotyrosine (NT) immunohistochemistry of cochlea after 24 hours noise (Experiment 1). In kind it is in vivo, Wistar rats. The conditions noted are these: ADAC treated cochlea versus vehicle. As for the experimental part: Hearing thresholds were assessed using auditory brainstem responses (ABRs) and the cellular damage was evaluated by quantitative histology (hair cell loss). ABR represents the activity of the auditory nerve and the central auditory pathways (brainstem/mid-brain regions) responding to the sound (clicks or pure tones). Nitrotyrosine marker was used for the immunohistochemical assessment of free radical damage.
After overnight fixation in 4% PFA, rat cochleae were decalcified in a 5% EDTA solution for 7 days and cryoprotected in a 30% sucrose (in 0.1 M PB) solution overnight. The cochleae were snap-frozen in N-pentane, and stored at −80° C. until further processing. Frozen cochlear tissues were cryosectioned at 30 μm and transferred into 24-well plates (Nalge Nunc Int., Naperville, USA) containing the sterile 0.1M PBS, and permeabilised with 1% Triton X-100 for 1 hr. Non-specific binding sites were blocked with 10% normal goat serum (Vector Laboratories, Burlingame, Calif.). […] Tissue sections were incubated with the secondary antibody for 2 hours in the dark, then rinsed several times in PBS, mounted in fluorescence medium (DAKO Corporation, Carpinteria, Calif., USA) and screened for NT specific immunofluorescence using a confocal microscope (TCS SP2, Leica Leisertechnik GmbH, Heidelberg, Germany). […]

The subject of assay [2] is rats exposed to 8-12 kHz band noise for 2 hours at 110 dB SPL. In words: ABR threshold shifts after acute (2 hours) noise exposure, systemic ADAC (Experiment 2). In kind it is in vivo, Wistar rats. The conditions noted are these: 14 days post-noise. The procedure:
ABRs were measured in response to auditory clicks and pure tones (4-28 kHz) before and at time intervals (30 minutes and 14 days) after noise exposure. Five ADAC injections (100 μg/kg i.p.) were administered at 24 hour intervals commencing 6 hours post-noise. In the control group, injections of the vehicle solution were administered at the same intervals as ADAC. Data are expressed as means±SEM. Animal numbers: n=8 per group. *p<0.05; **p<0.01; unpaired t-test.
Rats were exposed to 8-12 kHz band noise presented for 2 hours at 110 dB SPL. […]
ABRs were obtained by placing fine platinum electrodes subdermally at the mastoid region of the ear of interest (active electrode), scalp vertex (reference) and mastoid region of the opposite ear (ground electrode). […] The sound threshold of the ABR complex (waves I-IV) were determined by progressively attenuating the sound intensity until the waveform can no longer be observed. The acoustic stimuli for ABR were produced and the responses recorded using a Tucker-Davis Technologies auditory physiology workstation (Alachua, Fla., USA).
All ABR measurements were performed in a sound attenuator chamber (Shelburg Acoustics, Sydney, Australia). […] The ABR threshold was defined as the lowest intensity (to the nearest 5 dB) at which a response could be visually detected above the noise floor. […]

Consider `NCCNC(=O)Cc1ccc(NC(=O)Cc2ccc(Nc3ncnc4c3ncn4[C@@H]3O[C@H](CO)[C@@H](O)[C@H]3O)cc2)cc1` [ADAC, adenosine amine congener], for which the “NT immunostaining in the cochlea” value in assay [1] is reported as “very little NT immunostaining; also recorded: reduced in the ADAC treated cochlea to a background level”. In assay [2] (five ADAC injections), the “ABR threshold shifts versus vehicle-treated controls” value is “threshold shifts were reduced”. For the same compound, the “threshold recovery, highest” value in assay [2] (pure tone frequencies 4 to 16 kHz, five ADAC injections 100 μg/kg i.p. commencing 6 hours post-noise) is on record as “up to 30 dB”.
